Patent US6875451B2, “Compositions and methods for the treatment of primary and metastatic neoplastic diseases using arsenic compounds” (PolaRx Biopharmaceuticals Inc., priority 1997, dated 2005)
Read-outs that look alike come from different tables or passages of the source.

Assays:
Format in all cases: cell-based
MOLT-4 = assay: SRB growth assay, 2 days exposure, leukemia
Procedure: (§1) Arsenic trioxide (1 mg/ml, 10 mg/ampoule, manufactured by Taylor Pharmaceuticals, Decatur, Ill.) was tested at five concentrations each at 10-fold dilutions, i.e., 10^−5, 10^−6, 10^−7, 10^−8 and 10^−9 μg/ml.
(§2) The in vitro tests were performed by incubating the test cells in the presence of the indicated concentration of arsenic trioxide under standard culture conditions for a designated period of time, which is followed by a sulforhodamine B (SRB) protein assay to estimate cell viability or growth. The cell lines are organized into subpanels according to the origin of the cell lines, e.g., leukemia, breast cancer, etc. A description of the cell lines and method of testing is described in Monk et al. (1997, Anticancer Drug Des. 12:533-41) and Weinstein et al., (1997, Science 275:343-9), which are incorporated herein in their entirety.
(§3) The measurement of an effect is expressed in Percentage Growth (PG). The measured effect of the compound on a cell line is calculated according to one or the other of the following two expressions: If (Mean ODtest−Mean ODzero)≧0. then PG=100×(Mean ODtest−Mean ODzero)/(Mean ODctrl−Mean ODzero) If (Mean ODtest−Mean ODzero)<0. then PG=100×(Mean ODtest−Mean ODzero)/(Mean ODzero where: • Mean ODzero=the average of optical density measurements of SRB-derived color just before exposure of cells to the test compounds; • Mean ODtest=the average of optical density measurements of SRB-derived color after exposure of cells to the test compound for a designated period of time; and • Mean ODctrl=the average of optical density measurements of SRB-derived color after with no exposure of cells to the test compound for a designated period of time
(§4) The first two columns describe the subpanel (e.g., leukemia) and cell line (e.g., CCRF-CEM) involved. The next two columns list the Mean ODzero and Mean ODctrl; the next five columns list the Mean ODtest for each of five different concentrations. Each concentration is expressed as the log10 (molar or μg/ml). The next five columns list the calculated PGs for each concentration. The response parameters GI50, TGI and LC50 are interpolated values representing the concentrations at which the PG is +50, 0, and −50, respectively. Sometimes these response parameters cannot be obtained by interpolation. If, for instance, all of the PGs in a given row exceed +50, then none of the three parameters can be obtained by interpolation. In such a case, the value given for each response parameter is the highest concentration tested and is preceded by a “>” sign. This practice is extended similarly to the other possible situations where a response parameter cannot be obtained by interpolation.
(§5) In the first set, the cells from 56 different cancer cell lines were exposed to five concentrations of arsenic trioxide continuously for two days prior to performing the SRB assay. In the second set, the cells from 50 different cell lines (a subset of the first 56 cell lines, plus the renal cancer cell line 786-0) were exposed continuously for six days prior to the SRB assay.

SR = assay: SRB growth assay, 2 days exposure, leukemia
Procedure: as §1, §2, §3, §4, §5

K-562 = assay: SRB growth assay, 2 days exposure, leukemia
Procedure: as §1, §2, §3, §4, §5

CCRF-CEM = assay: SRB growth assay, 2 days exposure, leukemia
Procedure: as §1, §2, §3, §4, §5

RPMI-8226 = assay: SRB growth assay, 2 days exposure, leukemia
Procedure: as §1, §2, §3, §4, §5

DU-145 = assay: SRB growth assay, 6 days exposure, prostate cancer; settings: DU-145, 6 days
Procedure: as §1, §2, §3, §4, §5

HL-60(TB) = settings: 2 days
TX-10 = assay: SRB growth assay, 2 days exposure, renal cancer
Procedure: as §1, §2, §3, §4, §5

A498 = assay: SRB growth assay, 2 days exposure, renal cancer
Procedure: as §1, §2, §3, §4, §5

RXE 393 = assay: SRB growth assay, 2 days exposure, renal cancer
Procedure: as §1, §2, §3, §4, §5

UO-31 = assay: SRB growth assay, 2 days exposure, renal cancer
Procedure: as §1, §2, §3, §4, §5

SN12C = assay: SRB growth assay, 2 days exposure, renal cancer
Procedure: as §1, §2, §3, §4, §5

CAKI-1 = assay: SRB growth assay, 2 days exposure, renal cancer
Procedure: as §1, §2, §3, §4, §5

**Q.** With arsenic trioxide as the substance, how does the TGI (MOLT-4) read?
**A.** >0.0126 ng/mL

**Q.** And the “Percent Growth” value (MOLT-4; log10 conc −4.9)?
**A.** 4%

**Q.** And the “Percent Growth” value (MOLT-4; log10 conc −5.9)?
**A.** 77%

**Q.** What about the “Percent Growth” value (MOLT-4; log10 conc −6.9) of the same substance?
**A.** 105%

**Q.** And the “Percent Growth” value (MOLT-4; log10 conc −7.9)?
**A.** 105%

**Q.** And the “Percent Growth” value (MOLT-4; log10 conc −8.9)?
**A.** 109%

**Q.** And the TGI (SR)?
**A.** 0.00585 ng/mL

**Q.** And the “Percent Growth” value (SR; log10 conc −4.9)?
**A.** −30%

**Q.** And the “Percent Growth” value (SR; log10 conc −5.9)?
**A.** 60%

**Q.** And the “Percent Growth” value (SR; log10 conc −6.9)?
**A.** 100%

**Q.** And the “Percent Growth” value (SR; log10 conc −7.9)?
**A.** 89%

**Q.** And the “Percent Growth” value (SR; log10 conc −8.9)?
**A.** 99%

**Q.** And the TGI (K-562)?
**A.** 0.011 ng/mL

**Q.** What about the “Percent Growth” value (K-562; log10 conc −4.9) of the same substance?
**A.** −5%

**Q.** And the “Percent Growth” value (K-562; log10 conc −5.9)?
**A.** 76%

**Q.** And the “Percent Growth” value (K-562; log10 conc −6.9)?
**A.** 100%

**Q.** And the “Percent Growth” value (K-562; log10 conc −7.9)?
**A.** 101%

**Q.** What about the “Percent Growth” value (K-562; log10 conc −8.9) of the same substance?
**A.** 98%

**Q.** And the TGI (CCRF-CEM)?
**A.** 0.01 ng/mL

**Q.** And the “Percent Growth” value (CCRF-CEM; log10 conc −4.9)?
**A.** −5%

**Q.** What about the “Percent Growth” value (CCRF-CEM; log10 conc −5.9) of the same substance?
**A.** 47%

**Q.** And the “Percent Growth” value (CCRF-CEM; log10 conc −6.9)?
**A.** 98%

**Q.** And the “Percent Growth” value (CCRF-CEM; log10 conc −7.9)?
**A.** 105%

**Q.** What about the “Percent Growth” value (CCRF-CEM; log10 conc −8.9) of the same substance?
**A.** 106%

**Q.** What about the TGI (RPMI-8226) of the same substance?
**A.** 0.00723 ng/mL

**Q.** And the “Percent Growth” value (RPMI-8226; log10 conc −4.9)?
**A.** −21%

**Q.** What about the “Percent Growth” value (RPMI-8226; log10 conc −5.9) of the same substance?
**A.** 65%

**Q.** And the “Percent Growth” value (RPMI-8226; log10 conc −6.9)?
**A.** 87%

**Q.** What about the “Percent Growth” value (RPMI-8226; log10 conc −7.9) of the same substance?
**A.** 93%

**Q.** What about the “Percent Growth” value (RPMI-8226; log10 conc −8.9) of the same substance?
**A.** 96%

**Q.** And the TGI (DU-145)?
**A.** 6.32E−06

**Q.** What about the “Mean Optical Densities” value (DU-145; Log 10 Concentration −4.9) of the same substance?
**A.** 0.055

**Q.** What about the “Percent Growth” value (DU-145; Log 10 Concentration −4.9) of the same substance?
**A.** −43%

**Q.** What about the “Mean Optical Densities” value (DU-145; Log 10 Concentration −5.9) of the same substance?
**A.** 2.153

**Q.** What about the “Percent Growth” value (DU-145; Log 10 Concentration −5.9) of the same substance?
**A.** 100%

**Q.** And the “Mean Optical Densities” value (DU-145; Log 10 Concentration −6.9)?
**A.** 1.935

**Q.** And the “Percent Growth” value (DU-145; Log 10 Concentration −6.9)?
**A.** 89%

**Q.** And the “Mean Optical Densities” value (DU-145; Log 10 Concentration −7.9)?
**A.** 1.954

**Q.** And the “Percent Growth” value (DU-145; Log 10 Concentration −7.9)?
**A.** 90%

**Q.** What about the “Mean Optical Densities” value (DU-145; Log 10 Concentration −8.9) of the same substance?
**A.** 2.147

**Q.** And the “Percent Growth” value (DU-145; Log 10 Concentration −8.9)?
**A.** 99%

**Q.** What about the CC50 (DU-145; read-out: LC50 (the source's name)) of the same substance?
**A.** > 12.6 µM

**Q.** And the TGI (HL-60(TB))?
**A.** 0.0103 ng/mL

**Q.** What about the “Percent Growth” value (HL-60(TB); log10 conc −4.9) of the same substance?
**A.** −9%

**Q.** And the “Percent Growth” value (HL-60(TB); log10 conc −5.9)?
**A.** 90%

**Q.** And the “Percent Growth” value (HL-60(TB); log10 conc −6.9)?
**A.** 102%

**Q.** And the “Percent Growth” value (HL-60(TB); log10 conc −7.9)?
**A.** 92%

**Q.** And the “Percent Growth” value (HL-60(TB); log10 conc −8.9)?
**A.** 101%

**Q.** What about the TGI (TX-10) of the same substance?
**A.** >0.0126 ng/mL

**Q.** And the “Percent Growth” value (TX-10; log10 conc −4.9)?
**A.** 55%

**Q.** What about the “Percent Growth” value (TX-10; log10 conc −5.9) of the same substance?
**A.** 96%

**Q.** What about the “Percent Growth” value (TX-10; log10 conc −6.9) of the same substance?
**A.** 102%

**Q.** And the “Percent Growth” value (TX-10; log10 conc −7.9)?
**A.** 96%

**Q.** And the “Percent Growth” value (TX-10; log10 conc −8.9)?
**A.** 98%

**Q.** What about the TGI (A498) of the same substance?
**A.** 0.00971 ng/mL

**Q.** What about the “Percent Growth” value (A498; log10 conc −4.9) of the same substance?
**A.** −11%

**Q.** And the “Percent Growth” value (A498; log10 conc −5.9)?
**A.** 84%

**Q.** What about the “Percent Growth” value (A498; log10 conc −6.9) of the same substance?
**A.** 89%

**Q.** And the “Percent Growth” value (A498; log10 conc −7.9)?
**A.** 93%

**Q.** And the “Percent Growth” value (A498; log10 conc −8.9)?
**A.** 105%

**Q.** What about the TGI (RXE 393) of the same substance?
**A.** >0.0126 ng/mL

**Q.** What about the “Percent Growth” value (RXE 393; log10 conc −4.9) of the same substance?
**A.** 7%

**Q.** What about the “Percent Growth” value (RXE 393; log10 conc −5.9) of the same substance?
**A.** 67%

**Q.** What about the “Percent Growth” value (RXE 393; log10 conc −6.9) of the same substance?
**A.** 109%

**Q.** What about the “Percent Growth” value (RXE 393; log10 conc −7.9) of the same substance?
**A.** 74%

**Q.** What about the “Percent Growth” value (RXE 393; log10 conc −8.9) of the same substance?
**A.** 23%

**Q.** What about the TGI (UO-31) of the same substance?
**A.** >0.0126 ng/mL

**Q.** And the “Percent Growth” value (UO-31; log10 conc −4.9)?
**A.** 42%

**Q.** What about the “Percent Growth” value (UO-31; log10 conc −5.9) of the same substance?
**A.** 103%

**Q.** And the “Percent Growth” value (UO-31; log10 conc −6.9)?
**A.** 110%

**Q.** And the “Percent Growth” value (UO-31; log10 conc −7.9)?
**A.** 108%

**Q.** What about the “Percent Growth” value (UO-31; log10 conc −8.9) of the same substance?
**A.** 105%

**Q.** What about the TGI (SN12C) of the same substance?
**A.** 0.00696 ng/mL

**Q.** What about the “Percent Growth” value (SN12C; log10 conc −4.9) of the same substance?
**A.** −28%

**Q.** And the “Percent Growth” value (SN12C; log10 conc −5.9)?
**A.** 81%

**Q.** And the “Percent Growth” value (SN12C; log10 conc −6.9)?
**A.** 88%

**Q.** And the “Percent Growth” value (SN12C; log10 conc −7.9)?
**A.** 96%

**Q.** And the “Percent Growth” value (SN12C; log10 conc −8.9)?
**A.** 97%

**Q.** What about the TGI (CAKI-1) of the same substance?
**A.** 0.00913 ng/mL

**Q.** What about the “Percent Growth” value (CAKI-1; log10 conc −4.9) of the same substance?
**A.** −13%

**Q.** What about the “Percent Growth” value (CAKI-1; log10 conc −5.9) of the same substance?
**A.** 78%

**Q.** And the “Percent Growth” value (CAKI-1; log10 conc −6.9)?
**A.** 128%

**Q.** And the “Percent Growth” value (CAKI-1; log10 conc −7.9)?
**A.** 103%

**Q.** What about the “Percent Growth” value (CAKI-1; log10 conc −8.9) of the same substance?
**A.** 120%
